Reference: patent US20240092835A1, “NOVEL PEPTIDES CAPABLE OF ALTERING NK CELL ACTIVITY” (Massachusetts Institute of Technology, priority 2022, published 2024)

What was measured:
Assay type in all cases: cell-based, human
[1] = system: NKG2A−/NKG2C− NK cells; experiment: NK cell activation markers in control NKG2A-/NKG2C- NK cells incubated with peptide and K562 expressing HLA-E
Protocol: (§1) A human immortalized myelogenous leukemia cell line (K562), which expresses HLA-E was incubated with novel peptides (Table 1) derived from the human proteome or human cytomegalovirus proteome. […] Controls assessments were also performed using NKG2A−/NKG2C− cells (Tables 10-13). Inhibition was indicated by a decrease in percent cells positive for cell surface markers, while activation was indicated by an increase in percent cells positive for cell surface markers.

[2] = system: NKG2A+/NKG2C− NK cells; experiment: NK cell activation markers in NKG2A+/NKG2C- NK cells incubated with peptide and K562 expressing HLA-E (inhibition); conditions: NKG2A+/NKG2C- NK cells, K562/HLA-E
Protocol: as §1

[3] = system: NKG2A−/NKG2C+ NK cells; experiment: NK cell activation markers in NKG2A-/NKG2C+ NK cells incubated with peptide and K562 expressing HLA-E (activation); conditions: NKG2A-/NKG2C+ NK cells, K562/HLA-E
Protocol: as §1

VMAPRTLIL [VMAPRTLIL (LIL), positive control peptide, reference compound]
percentage CCL3+ NK cells ([1]; Trial 1): 31.4% | percentage CD107+ NK cells ([1]; Trial 1): 24.4% | percentage TNF+ NK cells ([1]; Trial 1): 3.46% | percentage of IFNG+ NK cells ([1]; Trial 1): 15.5% | percentage CCL3+ NK cells ([1]; Trial 2): 54% | percentage CD107+ NK cells ([1]; Trial 2): 33.4% | percentage TNF+ NK cells ([1]; Trial 2): 7.41% | percentage of IFNG+ NK cells ([1]; Trial 2): 22.8% | percentage CCL3+ NK cells ([1]; Trial 3): 46.1% | percentage CD107+ NK cells ([1]; Trial 3): 43.2% | percentage TNF+ NK cells ([1]; Trial 3): 13.6% | percentage of IFNG+ NK cells ([1]; Trial 3): 36.7% | percentage CCL3+ NK cells ([1]; Trial 4): 30.8% | percentage CD107+ NK cells ([1]; Trial 4): 26.4% | percentage TNF+ NK cells ([1]; Trial 4): 8.21% | percentage of IFNG+ NK cells ([1]; Trial 4): 18.7% | percentage CCL3+ NK cells ([1]; Trial 5): 23.8% | percentage CD107+ NK cells ([1]; Trial 5): 17.9% | percentage TNF+ NK cells ([1]; Trial 5): 4.32% | percentage of IFNG+ NK cells ([1]; Trial 5): 12.1% | percentage CCL3+ NK cells ([1]; Trial 6): 21.4% | percentage CD107+ NK cells ([1]; Trial 6): 19% | percentage TNF+ NK cells ([1]; Trial 6): 3.8% | percentage of IFNG+ NK cells ([1]; Trial 6): 9.39% | percentage of CCL3+ NK cells ([2]; Trial 1): 1.59% | percentage of CD107a+ NK cells ([2]; Trial 1): 0.35% | percentage of IFNG+ NK cells ([2]; Trial 1): 0% | percentage of TNF+ NK cells ([2]; Trial 1): 0% | percentage of CCL3+ NK cells ([2]; Trial 2): 14.4% | percentage of CD107a+ NK cells ([2]; Trial 2): 2.73% | percentage of IFNG+ NK cells ([2]; Trial 2): 0.59% | percentage of TNF+ NK cells ([2]; Trial 2): 0.39% | percentage of CCL3+ NK cells ([2]; Trial 3): 4.32% | percentage of CD107a+ NK cells ([2]; Trial 3): 1.95% | percentage of IFNG+ NK cells ([2]; Trial 3): 0.87% | percentage of TNF+ NK cells ([2]; Trial 3): 0.46% | percentage of CCL3+ NK cells ([2]; Trial 4): 0.75% | percentage of CD107a+ NK cells ([2]; Trial 4): 0.77% | percentage of IFNG+ NK cells ([2]; Trial 4): 0.08% | percentage of TNF+ NK cells ([2]; Trial 4): 0.08% | percentage of CCL3+ NK cells ([2]; Trial 5): 1.56% | percentage of CD107a+ NK cells ([2]; Trial 5): 0.56% | percentage of IFNG+ NK cells ([2]; Trial 5): 0.06% | percentage of TNF+ NK cells ([2]; Trial 5): 0.06% | percentage of CCL3+ NK cells ([2]; Trial 6): 0.92% | percentage of CD107a+ NK cells ([2]; Trial 6): 0.92% | percentage of IFNG+ NK cells ([2]; Trial 6): 0.05% | percentage of TNF+ NK cells ([2]; Trial 6): 0.05% | percentage of CCL3+ NK cells ([3]; Trial 1): 76.7% | percentage of CD107+ NK cells ([3]; Trial 1): 74.1% | percentage of IFNG+ NK cells ([3]; Trial 1): 64.1% | percentage of TNF+ NK cells ([3]; Trial 1): 48.5% | percentage of CCL3+ NK cells ([3]; Trial 2): 92% | percentage of CD107+ NK cells ([3]; Trial 2): 87% | percentage of IFNG+ NK cells ([3]; Trial 2): 79.8% | percentage of TNF+ NK cells ([3]; Trial 2): 62.5% | percentage of CCL3+ NK cells ([3]; Trial 3): 85.4% | percentage of CD107+ NK cells ([3]; Trial 3): 85.3% | percentage of IFNG+ NK cells ([3]; Trial 3): 78.1% | percentage of TNF+ NK cells ([3]; Trial 3): 61.4% | percentage of CCL3+ NK cells ([3]; Trial 4): 69% | percentage of CD107+ NK cells ([3]; Trial 4): 73.4% | percentage of IFNG+ NK cells ([3]; Trial 4): 59.7% | percentage of TNF+ NK cells ([3]; Trial 4): 50.4% | percentage of CCL3+ NK cells ([3]; Trial 5): 79.6% | percentage of CD107+ NK cells ([3]; Trial 5): 79.9% | percentage of IFNG+ NK cells ([3]; Trial 5): 72.5% | percentage of TNF+ NK cells ([3]; Trial 5): 66.3% | percentage of CCL3+ NK cells ([3]; Trial 6): 56.6% | percentage of CD107+ NK cells ([3]; Trial 6): 63.2% | percentage of IFNG+ NK cells ([3]; Trial 6): 45.9% | percentage of TNF+ NK cells ([3]; Trial 6): 35.5%

VMAPQSLLL [VMAPQSLLL (PQS), negative control peptide, reference compound]
percentage CCL3+ NK cells ([1]; Trial 1): 35.1% | percentage CD107+ NK cells ([1]; Trial 1): 24.1% | percentage TNF+ NK cells ([1]; Trial 1): 3.46% | percentage of IFNG+ NK cells ([1]; Trial 1): 14% | percentage CCL3+ NK cells ([1]; Trial 2): 57.7% | percentage CD107+ NK cells ([1]; Trial 2): 37.9% | percentage TNF+ NK cells ([1]; Trial 2): 9.07% | percentage of IFNG+ NK cells ([1]; Trial 2): 27.9% | percentage CCL3+ NK cells ([1]; Trial 3): 59.4% | percentage CD107+ NK cells ([1]; Trial 3): 53% | percentage TNF+ NK cells ([1]; Trial 3): 22.6% | percentage of IFNG+ NK cells ([1]; Trial 3): 48.3% | percentage CCL3+ NK cells ([1]; Trial 4): 35% | percentage CD107+ NK cells ([1]; Trial 4): 28% | percentage TNF+ NK cells ([1]; Trial 4): 8.23% | percentage of IFNG+ NK cells ([1]; Trial 4): 19% | percentage CCL3+ NK cells ([1]; Trial 5): 34% | percentage CD107+ NK cells ([1]; Trial 5): 24.4% | percentage TNF+ NK cells ([1]; Trial 5): 8.67% | percentage of IFNG+ NK cells ([1]; Trial 5): 18.6% | percentage CCL3+ NK cells ([1]; Trial 6): 22.4% | percentage CD107+ NK cells ([1]; Trial 6): 19.5% | percentage TNF+ NK cells ([1]; Trial 6): 4.08% | percentage of IFNG+ NK cells ([1]; Trial 6): 10% | percentage of CCL3+ NK cells ([2]; Trial 1): 49.8% | percentage of CD107a+ NK cells ([2]; Trial 1): 29.1% | percentage of IFNG+ NK cells ([2]; Trial 1): 10.1% | percentage of TNF+ NK cells ([2]; Trial 1): 2.95% | percentage of CCL3+ NK cells ([2]; Trial 2): 70.6% | percentage of CD107a+ NK cells ([2]; Trial 2): 47.4% | percentage of IFNG+ NK cells ([2]; Trial 2): 27.3% | percentage of TNF+ NK cells ([2]; Trial 2): 13.3% | percentage of CCL3+ NK cells ([2]; Trial 3): 58.2% | percentage of CD107a+ NK cells ([2]; Trial 3): 46.5% | percentage of IFNG+ NK cells ([2]; Trial 3): 35.1% | percentage of TNF+ NK cells ([2]; Trial 3): 18.8% | percentage of CCL3+ NK cells ([2]; Trial 4): 50.7% | percentage of CD107a+ NK cells ([2]; Trial 4): 40.7% | percentage of IFNG+ NK cells ([2]; Trial 4): 23.1% | percentage of TNF+ NK cells ([2]; Trial 4): 11.6% | percentage of CCL3+ NK cells ([2]; Trial 5): 47.7% | percentage of CD107a+ NK cells ([2]; Trial 5): 30.1% | percentage of IFNG+ NK cells ([2]; Trial 5): 14.1% | percentage of TNF+ NK cells ([2]; Trial 5): 6.1% | percentage of CCL3+ NK cells ([2]; Trial 6): 31.3% | percentage of CD107a+ NK cells ([2]; Trial 6): 24.4% | percentage of IFNG+ NK cells ([2]; Trial 6): 8.37% | percentage of TNF+ NK cells ([2]; Trial 6): 4.14% | percentage of CCL3+ NK cells ([3]; Trial 1): 47% | percentage of CD107+ NK cells ([3]; Trial 1): 25.2% | percentage of IFNG+ NK cells ([3]; Trial 1): 10.6% | percentage of TNF+ NK cells ([3]; Trial 1): 4.96% | percentage of CCL3+ NK cells ([3]; Trial 2): 55.3% | percentage of CD107+ NK cells ([3]; Trial 2): 32.8% | percentage of IFNG+ NK cells ([3]; Trial 2): 12.7% | percentage of TNF+ NK cells ([3]; Trial 2): 9.31% | percentage of CCL3+ NK cells ([3]; Trial 3): 69.4% | percentage of CD107+ NK cells ([3]; Trial 3): 58.6% | percentage of IFNG+ NK cells ([3]; Trial 3): 40.7% | percentage of TNF+ NK cells ([3]; Trial 3): 31.2% | percentage of CCL3+ NK cells ([3]; Trial 4): 58.6% | percentage of CD107+ NK cells ([3]; Trial 4): 53.6% | percentage of IFNG+ NK cells ([3]; Trial 4): 35.6% | percentage of TNF+ NK cells ([3]; Trial 4): 25.7% | percentage of CCL3+ NK cells ([3]; Trial 5): 55.4% | percentage of CD107+ NK cells ([3]; Trial 5): 43% | percentage of IFNG+ NK cells ([3]; Trial 5): 19.9% | percentage of TNF+ NK cells ([3]; Trial 5): 14.7% | percentage of CCL3+ NK cells ([3]; Trial 6): 32.7% | percentage of CD107+ NK cells ([3]; Trial 6): 22.3% | percentage of IFNG+ NK cells ([3]; Trial 6): 10.3% | percentage of TNF+ NK cells ([3]; Trial 6): 5.08%
